# Experimental data: article PMC7793975, “Design and Optimization of Quinazoline Derivatives: New Non-nucleoside Inhibitors of Bovine Viral Diarrhea Virus” (Frontiers in Chemistry, 2020)
# Where two headings read alike, the source gives them in different places.
# Legend:
# BVDV type 1 NADL strain = assay: Anti-BVDV assay (CPE reduction, MTS/PMS); type: cell-based, Bovine viral diarrhea virus; details: for EC50: BVDV NADL in MDBK cells, MOI 0.01, 3 days, reduces viral CPE by 50%, Inactive: <50% of inhibition of CPE at MNCC; for SI (CC50/EC50): in vitro selectivity index, MDBK cells / BVDV NADL
# Procedure: (A) Cytotoxicity. […] Mock-treated cells were added as control. […] (B) Antiviral activity.
# Madin-Darby bovine kidney cells (MDBK NBL-1; ATCC CCL-22) were grown in Eagle's Minimum Essential Medium (E-MEM), supplemented with 10% biotechnological fetal bovine serum (Internegocios, Argentina) (GM) at 37°C and 5% CO2. The BVDV type 1 NADL strain, cytopathic biotype (BVDV-1, ATCC VR 534), was provided by Dr. Laura Weber (INTA Castelar, Argentina).
# Then, serial dilutions of the test compounds in IM were added. […] After incubation for 3 days at 37°C and 5% CO2, the culture medium was removed, cell monolayers were washed twice with PBS, and IM supplemented with MTS/PMS was added to each well. The absorbance of each well was read at 490 nm. The EC50 was defined as the concentration of compound that prevented 50% of the virus-induced CPE and was calculated by interpolation in dose–response curves.
# MDBK cells = assay: Cytotoxicity assay (MTS/PMS); details: MDBK cells, 3 days
# Procedure: (§1) (A) Cytotoxicity. Sub-confluent MDBK cell monolayers grown in 96-well plates were treated with 2-fold serial dilutions of each compound in IM. Mock-treated cells were added as control. Cells were incubated and allowed to proliferate for 3 days at 37°C and 5% CO2. Cell viability was then determined by the MTS/PMS method. (B) Antiviral activity. Sub-confluent MDBK cell monolayers grown in 96-well plates were infected with BVDV NADL (MOI = 0.01) and treated with different concentrations of the compounds. Mock-infected cells and mock-treated infected cells were included as controls in each plate. After 3 days at 37°C and 5% CO2, cell viability was determined by the MTS/PMS method, and the percentage of the viral CPE inhibition was calculated.
# (§2) MDBK cells were seeded in 96-well plates at a density of 1 × 10^4 cells per well in GM. After 24 h, the culture medium was removed, monolayers were washed twice with phosphate-buffered saline (PBS), and serial dilutions of the test compounds were made in E-MEM supplemented with donor horse serum (DHS, Gibco, IM) and added. Cultures were incubated for 3 days at 37°C, and then, cell viability was determined by the MTS/PMS method according to the manufacturer's instructions (Promega). After incubation for 3 h at 37°C and 5% CO2, the absorbance was determined at 490 nm. The 50% cytotoxic concentration (CC50) was defined as the concentration of compound that inhibited the proliferation of exponentially growing cells by 50% and was calculated by interpolation in dose–response curves.
# [1] = Cytotoxicity assay (MTS/PMS); details: bovine
# Procedure: as §1, §2
# [2] = Bovine viral diarrhea virus isolates and strains, MDBK, 72 h, read-out: EC50
Compound,EC50 (BVDV type 1 NADL strain; [2]) [µM],SI (CC50/EC50) (BVDV type 1 NADL strain),MNCC (maximum non-cytotoxic concentration) (MDBK cells) [µM],CC50 at 3 days ([1]; MDBK cells) [µM],EC50 (BVDV type 1 NADL strain),CC50 at 3 days [1] [µM]
"COc1ccc(-c2nc(N3CCN(C)CC3)c3ccccc3n2)cc1 [Compound 1.19, 2-(4-Methoxyphenyl)-4-(4-Methylpiperazin-1-yl)quinazoline]",12.8 ± 0.3,2.9,18.3 ± 0.3,37.1 ± 0.2,,
"c1ccc(-c2nc(NCCN3CCOCC3)c3ccccc3n2)cc1 [Compound 1, N-(2-morpholinoethyl)-2-phenylquinazolin-4-amine]",9.7 ± 0.5,5.8,10.9 ± 1.4,55.9 ± 8.2,,
"OCCN1CCN(c2nc(-c3ccc(Cl)cc3Cl)nc3ccccc23)CC1 [Compound 1.17, 2-{4-[2-(2,4-Dichlorophenyl)quinazolin-4-yl]piperazin-1-yl}ethanol]",,,17.4 ± 3.0,31.5 ± 5.7,Inactive,
"CN1CCN(c2nc(-c3ccc([N+](=O)[O-])cc3)nc3ccccc23)CC1 [Compound 1.14, 4-(4-Methylpiperazin-1-yl)-2-(4-nitrophenyl)quinazoline]",,,8.7 ± 1.6,13 ± 3.4,Inactive,
"Clc1ccc2c(NCCN3CCOCC3)ncnc2c1 [Compound 1.21, 7-Chloro-N-(2-Morpholinoethyl)quinazolin-4-amine]",2.3 ± 0.5,25.8,17.3 ± 5.2,59.3 ± 10.7,,
c1ccc(CNc2nc(-c3ccccc3)nc3ccccc23)cc1 [Compound 1.4],,,6.0 ± 0.3,,Inactive,
"Cc1ccc(-c2nc(N3CCN(CCO)CC3)c3ccccc3n2)cc1 [Compound 1.20, 2-{4-[2-(p-Tolyl)quinazolin-4-yl]piperazin-1-yl}ethanol]",8.5 ± 3.4,6.5,30.5 ± 2.1,55.4 ± 4,,
"OCCN1CCN(c2ncnc3cc(Cl)ccc23)CC1 [Compound 1.22, 2-[4-(7-Chloroquinazolin-4-yl)piperazin-1-yl]ethan-1-ol]",25.8 ± 1.2,,,> 100,,
"CC1(C)CC(Nc2nc(-c3ccccc3)nc3ccccc23)CC(C)(C)N1 [Compound 1.12, 2-Phenyl-N-(2,2,6,6-tetramethylpiperidin-4-yl)quinazolin-4-amine]",1.4 ± 0.3,5.3,3.3 ± 0.7,7.4 ± 0.03,,
"[O-][n+]1ccc(CNc2nc(-c3ccccc3)nc3ccccc23)cc1 [Compound 1.13, 4-{[(2-Phenylquinazolin-4-yl)amino]methyl}pyridine 1-oxide]",,,,> 100,Inactive,
Cc1ccc(CNc2nc(-c3ccccc3)nc3ccccc23)cc1 [Compound 1.2],,,6.0 ± 0.2,,Inactive,
"CN1CCN(c2ncnc3cc(Cl)ccc23)CC1 [Compound 1.24, 7-Chloro-4-(4-Methylpiperazin-1-yl)quinazoline]",9.3 ± 2.1,>10.8,,,,> 100
FC(F)(F)c1cccc(CNc2nc(-c3ccccc3)nc3ccccc23)c1 [Compound 1.5],,,6.0 ± 0.1,,Inactive,
"Clc1ccc2c(NCCN3CCCCC3)ncnc2c1 [Compound 1.23, 7-Chloro-N-[2-(Piperidin-1-yl)ethyl]quinazolin-4-amine]",4.1 ± 2.2,>24.4,,> 100,,
COc1ccc(Nc2nc(-c3ccccc3)nc3ccccc23)cc1 [Compound 1.3],,,6.0 ± 0.2,,Inactive,
"CCCCCCNc1nc(-c2ccccc2)nc2ccccc12 [Compound 1.6, N-Hexyl-2-phenylquinazolin-4-amine]",,,12.0 ± 0.2,,Inactive,
c1ccc(-c2nc(NCc3cccnc3)c3ccccc3n2)cc1 [Compound 1.1],,,12.0 ± 0.1,,Inactive^f,
